50 compounds from the Kinase Knowledgebase extract (Sharma et al. 2016) can be followed below.

Molecules are shown by their SMILES. Where only a bound is given, the exact number is not on record here.

One assay concerns the target EGFR (human) (UniProt P00533). As to conditions: 3t3.
In the next assay the target is EGFR (UniProt P00533).
EGFR, sequence (P00533 whole entry, looked up): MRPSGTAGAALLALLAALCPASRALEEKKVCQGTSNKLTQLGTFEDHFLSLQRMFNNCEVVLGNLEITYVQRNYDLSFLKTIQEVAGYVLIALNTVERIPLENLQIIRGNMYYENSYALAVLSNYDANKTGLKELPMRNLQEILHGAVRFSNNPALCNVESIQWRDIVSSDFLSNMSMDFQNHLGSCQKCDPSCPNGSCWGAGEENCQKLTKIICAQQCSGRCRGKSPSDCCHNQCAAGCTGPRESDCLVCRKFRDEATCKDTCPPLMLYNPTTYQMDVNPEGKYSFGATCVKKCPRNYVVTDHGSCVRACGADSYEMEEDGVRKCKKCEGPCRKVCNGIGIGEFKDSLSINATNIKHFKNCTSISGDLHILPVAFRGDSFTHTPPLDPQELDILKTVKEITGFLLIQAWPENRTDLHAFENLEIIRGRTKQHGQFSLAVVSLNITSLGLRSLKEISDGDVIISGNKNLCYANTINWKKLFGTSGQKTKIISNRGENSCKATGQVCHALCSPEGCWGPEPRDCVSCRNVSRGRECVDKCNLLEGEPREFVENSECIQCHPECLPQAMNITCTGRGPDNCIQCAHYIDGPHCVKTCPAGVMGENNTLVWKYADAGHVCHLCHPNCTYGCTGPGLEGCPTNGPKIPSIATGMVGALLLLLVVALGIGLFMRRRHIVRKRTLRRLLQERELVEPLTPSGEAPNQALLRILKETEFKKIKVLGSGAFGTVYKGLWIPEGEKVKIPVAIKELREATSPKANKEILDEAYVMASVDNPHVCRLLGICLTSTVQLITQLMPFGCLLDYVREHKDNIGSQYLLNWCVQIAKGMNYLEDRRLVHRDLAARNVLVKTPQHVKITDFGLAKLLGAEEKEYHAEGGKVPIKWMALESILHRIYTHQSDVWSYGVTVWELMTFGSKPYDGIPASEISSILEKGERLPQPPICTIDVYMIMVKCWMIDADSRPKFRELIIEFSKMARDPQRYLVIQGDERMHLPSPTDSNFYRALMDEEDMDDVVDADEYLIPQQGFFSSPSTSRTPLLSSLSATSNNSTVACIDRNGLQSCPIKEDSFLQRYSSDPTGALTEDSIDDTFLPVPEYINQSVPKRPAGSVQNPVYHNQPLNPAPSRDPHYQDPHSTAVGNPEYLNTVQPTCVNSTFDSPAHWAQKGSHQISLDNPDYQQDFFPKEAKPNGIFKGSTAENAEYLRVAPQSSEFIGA

EGFR (human), sequence (P00533 whole entry, looked up): as above

`Cc1ccc2c(c1)/C(=C\c1[nH]cc(CCC(=O)O)c1C)C(=O)N2` yielded an IC50 against EGFR (human) of over 50 µM. `Cc1c(CCC(=O)O)c[nH]c1/C=C1/C(=O)Nc2ccc(Br)cc21` yielded an IC50 against EGFR (human) of over 50 µM. Still for that read-out and setting: the result for `Cc1ccc2c(c1)/C(=C\c1[nH]c(C)c(CCCN(C)C)c1C)C(=O)N2` reads 25.4 µM; that for `Cc1c(CCC(=O)O)c[nH]c1/C=C1/C(=O)Nc2ccc(I)cc21`, over 50 µM; that for `Cc1c(CCC(=O)O)c[nH]c1/C=C1/C(=O)Nc2ccccc21`, over 50 µM. Compound `Cc1[nH]c(/C=C2/C(=O)Nc3cc(O)ccc32)c(C)c1CCC(=O)O` displayed an IC50 on EGFR (human) of over 50 µM. The same measure, in the same setting: the result for `Cc1[nH]c(/C=C2/C(=O)Nc3ccc(Br)cc32)c(C)c1CCC(=O)O` reads over 50 µM.

Consider `Cc1[nH]c(/C=C2/C(=O)Nc3ccccc32)c(C)c1CCCN1CCOCC1`, for which the IC50 on EGFR was over 100 µM; on EGFR (human), over 50 µM. For the compound `Cc1cccc2c1/C(=C\c1[nH]c(C)c(CCC(=O)O)c1C)C(=O)N2`, the IC50 at EGFR (human) was over 50 µM. Consider `Cc1[nH]c(/C=C2/C(=O)Nc3ccccc32)c(C)c1CCCN(C)C`, for which the figures for the IC50 at EGFR and against EGFR (human) were over 100 µM and 12.6 µM, respectively. As to `COc1cccc(-c2ccc3c(c2)NC(=O)/C3=C\c2[nH]c(C)c(CCCN3CCOCC3)c2C)c1`, the IC50 at EGFR is over 100 µM; against EGFR (human) it was 41.9 µM. Taken in the same sequence, the figures for `Cc1[nH]c(/C=C2/C(=O)Nc3cc(-c4ccccc4)ccc32)c(C)c1CCCN1CCOCC1` were over 100 µM and over 50 µM. At EGFR (human), `Cc1[nH]c(/C=C2/C(=O)Nc3ccc(S(=O)(=O)N(C)C)cc32)c(C)c1CCCN(C)C` returned an IC50 of 11.2 µM. On to `Cc1[nH]c(/C=C2/C(=O)Nc3cc(Cl)ccc32)c(C)c1CCCN(C)C`, for which the figures for the IC50 against EGFR and at EGFR (human) were 86.6 µM and 25.4 µM, respectively. For `CCOc1cccc(-c2ccc3c(c2)NC(=O)/C3=C\c2[nH]cc(CCC(=O)O)c2C)c1`, the IC50 at EGFR (human) was found to be 37.2 µM. On the same count and under the same terms, the result for `COc1ccc2c(c1)/C(=C/c1[nH]cc(CCC(=O)O)c1C)C(=O)N2` reads over 50 µM. On the same count and under the same terms, the result for `Cc1cccc2c1/C(=C\c1[nH]c(C)c(CCCN(C)C)c1C)C(=O)N2` reads 20.2 µM. Same read-out and setting: the result for `COc1ccc(-c2ccc3c(c2)NC(=O)/C3=C\c2[nH]c(C)c(CCC(=O)O)c2C)cc1` reads over 50 µM.

`Cc1[nH]c(/C=C2/C(=O)Nc3ccc(Cl)cc32)c(C)c1CCCN(C)C`: the values for the half-maximal inhibitory concentration (IC50) on EGFR and on EGFR (human) were over 100 µM and 7.49 µM, respectively. Take `Cc1ccc2c(c1)/C(=C\c1[nH]c(C)c(CCC(=O)O)c1C)C(=O)N2`: the 50% inhibitory concentration (IC50) on EGFR (human) is over 50 µM.

At EGFR (human), `Cc1[nH]c(/C=C2/C(=O)Nc3ccc(I)cc32)c(C)c1CCC(=O)O` registered an IC50 of over 50 µM.

In the case of `COc1cccc(-c2ccc3c(c2)NC(=O)/C3=C\c2[nH]cc(CCC(=O)O)c2C)c1`, the IC50 on EGFR (human) was 30.6 µM.

For `COc1ccc(-c2ccc3c(c2)NC(=O)/C3=C\c2[nH]c(C)c(CCCN3CCOCC3)c2C)cc1`, the IC50 on EGFR is over 100 µM; against EGFR (human), over 50 µM.

As to `Cc1[nH]c(/C=C2/C(=O)Nc3ccc(Br)cc32)c(C)c1CCCN(C)C`, the IC50 at EGFR was over 100 µM; at EGFR (human) it was 4.1 µM. For `Cc1[nH]c(/C=C2/C(=O)Nc3ccc(S(=O)(=O)N4CCOCC4)cc32)c(C)c1CCCN(C)C`, the IC50 at EGFR (human) is 29.8 µM. For the compound `COc1ccc(-c2ccc3c(c2)NC(=O)/C3=C\c2[nH]c(C)c(CCCN(C)C)c2C)cc1`, the IC50 was over 100 µM on EGFR and 3.86 µM on EGFR (human). With `Cc1[nH]c(/C=C2/C(=O)Nc3cc(-c4ccccc4)ccc32)c(C)c1CCCN(C)C`, the half-maximal inhibitory concentration (IC50) was over 100 µM against EGFR and 4 µM on EGFR (human). As for `CCOc1cccc(-c2ccc3c(c2)NC(=O)/C3=C\c2[nH]c(C)c(CCC(=O)O)c2C)c1`, the IC50 against EGFR (human) turned out to be 24.7 µM. The same measure, in the same setting: the result for `Cc1c(CCC(=O)O)c[nH]c1/C=C1/C(=O)Nc2cc(Cl)ccc21` reads over 50 µM. The same measure, in the same setting: as for `Cc1c(CCC(=O)O)c[nH]c1/C=C1/C(=O)Nc2ccc(Cl)cc21`, the figure is 12 µM.

Consider `Cc1cccc2c1/C(=C\c1[nH]cc(CCC(=O)O)c1C)C(=O)N2`, for which the IC50 against EGFR (human) is over 50 µM. On the same count and under the same terms, the result for `Cc1[nH]c(/C=C2/C(=O)Nc3cccc(CCO)c32)c(C)c1CCCN(C)C` reads 25.3 µM; that for `Cc1[nH]c(/C=C2/C(=O)Nc3ccc(S(N)(=O)=O)cc32)c(C)c1CCCN(C)C`, 6.59 µM.

Regarding `CCc1ccc2c(c1)/C(=C/c1[nH]cc(CCC(=O)O)c1C)C(=O)N2`, at EGFR (human), the IC50 was over 50 µM. Regarding `COc1ccccc1-c1ccc2c(c1)NC(=O)/C2=C\c1[nH]c(C)c(CCCN2CCOCC2)c1C`, the IC50 against EGFR was over 100 µM; against EGFR (human), 3.9 µM. With `COc1ccc2c(c1)NC(=O)/C2=C\c1[nH]c(C)c(CCCN(C)C)c1C`, the IC50 against EGFR is over 100 µM; against EGFR (human), 27.5 µM. On to `COc1ccc2c(c1)/C(=C/c1[nH]c(C)c(CCCN(C)C)c1C)C(=O)N2`, for which the IC50 against EGFR is over 100 µM; against EGFR (human), 11 µM. `COc1ccc(-c2ccc3c(c2)NC(=O)/C3=C\c2[nH]cc(CCC(=O)O)c2C)cc1` yielded an IC50 at EGFR (human) of 36.8 µM. The same measure, in the same setting: the result for `Cc1c(CCC(=O)O)c[nH]c1/C=C1/C(=O)Nc2cc(-c3ccccc3)ccc21` reads 30.5 µM.

As for `COc1cccc(-c2ccc3c(c2)NC(=O)/C3=C\c2[nH]c(C)c(CCCN(C)C)c2C)c1`, the figures for the IC50 on EGFR and against EGFR (human) were 28.1 µM and 9.57 µM, respectively. On to `Cc1[nH]c(/C=C2/C(=O)Nc3cc(-c4ccccc4)ccc32)c(C)c1CCC(=O)O`, for which, on EGFR (human), the IC50 is 32.7 µM. This counts as double-digit micromolar. On the same count and under the same terms, the result for `COc1ccc2c(c1)NC(=O)/C2=C\c1[nH]cc(CCC(=O)O)c1C` reads over 50 µM.

In turn, `Cc1c(CCC(=O)O)c[nH]c1/C=C1/C(=O)Nc2cc(Br)ccc21` came in with an IC50 against EGFR (human) of over 50 µM.

`Cc1[nH]c(/C=C2/C(=O)Nc3ccc(Cl)cc32)c(C)c1CCC(=O)O` returned an IC50 against EGFR (human) of over 50 µM. In the case of `Cc1[nH]c(/C=C2/C(=O)Nc3ccc(Br)cc32)c(C)c1CCCN1CCOCC1`, the concentration for half-maximal inhibition (IC50) is over 100 µM against EGFR and 44.6 µM on EGFR (human). Take `COc1ccc2c(c1)NC(=O)/C2=C\c1[nH]c(C)c(CCC(=O)O)c1C`: the IC50 against EGFR (human) was over 50 µM.

Turning to `COc1ccccc1-c1ccc2c(c1)NC(=O)/C2=C\c1[nH]c(C)c(CCCN(C)C)c1C`, the half-maximal inhibitory concentration (IC50) against EGFR was determined as 22.8 µM; on EGFR (human), 9.56 µM. In turn, `COC(=O)c1ccc2c(c1)/C(=C/c1[nH]cc(CCC(=O)O)c1C)C(=O)N2` registered an IC50 against EGFR (human) of over 50 µM.

Regarding `COc1cc2c(cc1OC)/C(=C/c1[nH]cc(CCC(=O)O)c1C)C(=O)N2`, the IC50 at EGFR (human) was over 50 µM. Same read-out and setting: the result for `Cc1[nH]c(/C=C2\C(=O)Nc3ccc(S(=O)(=O)NC(C)C)cc32)c(C)c1CCCN(C)C` reads 8.38 µM.

A word on the IC50: it is the midpoint of a concentration-inhibition curve. A higher IC50 goes with weaker potency in that assay.
